{"source": "ChEMBL document CHEMBL2203039", "about": "“Azabenzthiazole inhibitors of leukotriene A₄ hydrolase” (Bioorg Med Chem Lett, 2012)", "molecular_target": "Voltage-gated inwardly rectifying potassium channel KCNH2 (Homo sapiens, UniProt Q12809)", "sequence (Q12809 whole entry)": "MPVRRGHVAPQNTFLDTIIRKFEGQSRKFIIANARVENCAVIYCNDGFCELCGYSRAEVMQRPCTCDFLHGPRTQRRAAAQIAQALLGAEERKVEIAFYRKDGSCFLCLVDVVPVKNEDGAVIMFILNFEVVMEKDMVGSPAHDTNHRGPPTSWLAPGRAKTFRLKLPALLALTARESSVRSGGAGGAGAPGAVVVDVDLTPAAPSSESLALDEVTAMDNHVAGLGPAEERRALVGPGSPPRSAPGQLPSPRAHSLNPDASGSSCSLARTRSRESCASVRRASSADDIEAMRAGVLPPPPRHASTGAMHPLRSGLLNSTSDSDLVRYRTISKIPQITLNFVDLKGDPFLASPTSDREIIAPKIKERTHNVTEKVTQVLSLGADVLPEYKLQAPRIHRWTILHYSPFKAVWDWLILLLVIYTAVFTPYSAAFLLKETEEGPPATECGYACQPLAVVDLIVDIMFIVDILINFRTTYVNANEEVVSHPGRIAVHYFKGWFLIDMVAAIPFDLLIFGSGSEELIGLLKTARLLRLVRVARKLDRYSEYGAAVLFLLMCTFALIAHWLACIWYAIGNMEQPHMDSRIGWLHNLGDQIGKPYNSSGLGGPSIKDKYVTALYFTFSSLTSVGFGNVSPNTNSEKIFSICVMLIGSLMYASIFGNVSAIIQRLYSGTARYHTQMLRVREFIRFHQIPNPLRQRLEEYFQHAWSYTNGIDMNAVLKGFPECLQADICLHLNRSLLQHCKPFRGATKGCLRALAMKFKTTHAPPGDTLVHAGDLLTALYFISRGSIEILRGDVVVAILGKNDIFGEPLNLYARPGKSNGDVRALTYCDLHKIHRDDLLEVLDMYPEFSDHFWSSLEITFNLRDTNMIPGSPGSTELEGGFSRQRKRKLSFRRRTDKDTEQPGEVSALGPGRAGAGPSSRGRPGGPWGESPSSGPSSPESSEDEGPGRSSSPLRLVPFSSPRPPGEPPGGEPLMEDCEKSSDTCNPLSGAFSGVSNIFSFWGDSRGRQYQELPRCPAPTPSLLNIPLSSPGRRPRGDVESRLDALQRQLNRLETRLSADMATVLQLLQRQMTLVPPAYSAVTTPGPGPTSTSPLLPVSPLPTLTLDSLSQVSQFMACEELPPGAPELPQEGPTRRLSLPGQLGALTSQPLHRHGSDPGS", "experiment": "Inhibition of dofetilide binding to human ERG by radioligand binding assay"}
{"smiles": "O=C1CCCN1C1CCN(CCc2ccc(Oc3nc4ncccc4s3)cc2)CC1", "values": [{"measurement": "IC50", "result": "> 10", "unit": "µM"}]}
